According to ChEMBL document CHEMBL1140804, “Design, synthesis and evaluation of trifluoromethane sulfonamide derivatives as new potent and selective peroxisome proliferator-activated receptor alpha agonists” (Bioorg Med Chem Lett, 2008):

How the values were obtained:
[1] = molecular target: T1, Peroxisome proliferator-activated receptor alpha (Mus musculus, UniProt P23204)
T1 sequence (P23204 whole entry): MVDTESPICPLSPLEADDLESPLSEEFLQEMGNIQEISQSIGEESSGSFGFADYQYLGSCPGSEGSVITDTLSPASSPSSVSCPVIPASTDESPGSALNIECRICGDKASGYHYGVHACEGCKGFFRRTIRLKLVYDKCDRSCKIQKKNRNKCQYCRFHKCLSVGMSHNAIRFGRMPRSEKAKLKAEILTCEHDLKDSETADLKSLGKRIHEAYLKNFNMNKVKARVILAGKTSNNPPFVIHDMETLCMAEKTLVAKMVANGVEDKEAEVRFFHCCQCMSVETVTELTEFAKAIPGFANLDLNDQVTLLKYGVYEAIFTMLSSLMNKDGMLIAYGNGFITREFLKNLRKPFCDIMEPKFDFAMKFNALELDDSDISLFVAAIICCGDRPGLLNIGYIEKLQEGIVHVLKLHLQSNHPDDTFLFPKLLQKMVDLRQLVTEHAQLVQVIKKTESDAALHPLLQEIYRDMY
Description: (§1) Agonist activity at mouse PPARalpha assessed as receptor activation by cell based assay

[2] = molecular target: T2, Peroxisome proliferator-activated receptor alpha (Mus musculus) (UniProt P23204)
T2 sequence (whole entry): T1 sequence (P23204 whole entry)
Description: as §1

[3] = molecular target: T3, Peroxisome proliferator-activated receptor alpha (Homo sapiens, UniProt Q07869)
T3 sequence (Q07869 whole entry): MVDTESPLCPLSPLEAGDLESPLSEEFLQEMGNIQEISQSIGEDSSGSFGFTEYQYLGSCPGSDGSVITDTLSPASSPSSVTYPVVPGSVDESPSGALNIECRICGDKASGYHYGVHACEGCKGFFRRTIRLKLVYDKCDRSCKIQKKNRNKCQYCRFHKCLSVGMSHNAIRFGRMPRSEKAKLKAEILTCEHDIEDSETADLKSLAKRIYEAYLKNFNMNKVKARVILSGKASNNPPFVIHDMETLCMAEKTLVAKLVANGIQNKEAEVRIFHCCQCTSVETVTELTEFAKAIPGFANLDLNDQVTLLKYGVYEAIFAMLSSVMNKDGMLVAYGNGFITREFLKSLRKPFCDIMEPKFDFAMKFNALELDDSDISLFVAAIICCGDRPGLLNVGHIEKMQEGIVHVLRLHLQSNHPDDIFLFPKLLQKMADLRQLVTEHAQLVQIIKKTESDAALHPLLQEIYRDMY
Description: Agonist activity at human PPARalpha assessed as receptor activation by cell based assay

[4] = molecular target: T4, Peroxisome proliferator-activated receptor delta (Mus musculus, UniProt P35396)
T4 sequence (P35396 whole entry): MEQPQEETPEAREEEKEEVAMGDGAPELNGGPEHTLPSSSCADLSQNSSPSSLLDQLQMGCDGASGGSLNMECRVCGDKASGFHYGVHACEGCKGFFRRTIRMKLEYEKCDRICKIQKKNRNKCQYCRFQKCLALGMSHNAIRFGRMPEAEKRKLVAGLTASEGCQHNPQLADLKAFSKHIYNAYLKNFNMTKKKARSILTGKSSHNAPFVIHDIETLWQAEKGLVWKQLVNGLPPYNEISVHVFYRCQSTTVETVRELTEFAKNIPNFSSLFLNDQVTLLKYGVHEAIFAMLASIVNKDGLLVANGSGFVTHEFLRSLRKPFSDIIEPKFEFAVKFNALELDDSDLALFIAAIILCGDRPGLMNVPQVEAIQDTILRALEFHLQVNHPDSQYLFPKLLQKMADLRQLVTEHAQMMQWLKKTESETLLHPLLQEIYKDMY
Description: Agonist activity at mouse PPARdelta assessed as receptor activation by cell based assay

[5] = molecular target: T5, Peroxisome proliferator-activated receptor gamma (Homo sapiens, UniProt P37231)
T5 sequence (P37231 whole entry): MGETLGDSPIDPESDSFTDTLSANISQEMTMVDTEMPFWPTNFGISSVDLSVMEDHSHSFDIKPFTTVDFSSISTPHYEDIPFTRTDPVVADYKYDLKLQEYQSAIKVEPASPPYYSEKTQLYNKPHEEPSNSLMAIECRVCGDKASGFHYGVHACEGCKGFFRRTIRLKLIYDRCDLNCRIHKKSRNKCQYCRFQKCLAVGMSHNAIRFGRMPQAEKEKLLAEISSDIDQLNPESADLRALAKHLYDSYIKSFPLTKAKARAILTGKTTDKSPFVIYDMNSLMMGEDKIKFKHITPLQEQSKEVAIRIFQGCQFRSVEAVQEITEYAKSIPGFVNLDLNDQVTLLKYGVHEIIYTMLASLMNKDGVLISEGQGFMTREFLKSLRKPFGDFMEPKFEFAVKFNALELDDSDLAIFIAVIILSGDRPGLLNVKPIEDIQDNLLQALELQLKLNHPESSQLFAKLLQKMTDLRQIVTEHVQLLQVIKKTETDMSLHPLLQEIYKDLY
Description: Agonist activity at human PPARgamma assessed as receptor activation by cell based assay

[6] = molecular target: T6, Peroxisome proliferator-activated receptor gamma (Mus musculus, UniProt P37238)
T6 sequence (P37238 whole entry): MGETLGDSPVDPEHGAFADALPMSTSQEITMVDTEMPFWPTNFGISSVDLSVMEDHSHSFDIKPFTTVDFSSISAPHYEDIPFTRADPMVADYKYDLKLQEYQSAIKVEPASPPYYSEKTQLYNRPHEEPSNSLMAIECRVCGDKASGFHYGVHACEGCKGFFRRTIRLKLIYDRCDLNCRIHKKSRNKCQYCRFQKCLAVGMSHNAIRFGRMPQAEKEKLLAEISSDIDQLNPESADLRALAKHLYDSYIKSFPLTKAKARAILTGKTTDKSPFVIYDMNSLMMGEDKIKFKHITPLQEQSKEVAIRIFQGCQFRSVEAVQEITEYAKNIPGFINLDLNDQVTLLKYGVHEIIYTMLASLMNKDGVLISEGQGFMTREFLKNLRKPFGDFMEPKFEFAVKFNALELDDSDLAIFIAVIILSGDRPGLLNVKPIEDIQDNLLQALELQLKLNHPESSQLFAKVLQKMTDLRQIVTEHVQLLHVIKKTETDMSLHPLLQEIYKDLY
Description: Agonist activity at mouse PPARgamma assessed as receptor activation by cell based assay

[7] = molecular target: T7, Peroxisome proliferator-activated receptor delta (Homo sapiens, UniProt Q03181)
T7 sequence (Q03181 whole entry): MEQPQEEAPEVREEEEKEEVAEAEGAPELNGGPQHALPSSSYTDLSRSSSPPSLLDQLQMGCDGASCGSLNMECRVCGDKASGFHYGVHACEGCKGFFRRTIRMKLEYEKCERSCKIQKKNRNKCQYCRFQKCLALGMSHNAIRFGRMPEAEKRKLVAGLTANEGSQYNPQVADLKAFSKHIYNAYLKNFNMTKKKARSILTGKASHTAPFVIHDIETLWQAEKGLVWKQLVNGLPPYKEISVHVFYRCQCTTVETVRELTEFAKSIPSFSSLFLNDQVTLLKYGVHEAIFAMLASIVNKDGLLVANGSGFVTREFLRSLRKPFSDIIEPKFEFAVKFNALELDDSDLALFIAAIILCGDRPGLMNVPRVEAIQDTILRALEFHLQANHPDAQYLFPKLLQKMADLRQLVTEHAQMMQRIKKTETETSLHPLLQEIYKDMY
Description: Agonist activity at human PPARdelta assessed as receptor activation by cell based assay

Compound: Cc1csc(-c2ccc(C(=O)NCc3ccc(NS(=O)(=O)C(F)(F)F)cc3)cc2)n1
- EC50 [1]: 80 nM
- Activity [2]: 96%
- EC50 [3]: 60 nM

Compound: CC(C)(Oc1ccc(CNC(=O)c2ccc(-c3ccc(Cl)cc3)cc2)cc1)C(=O)O
- EC50 [1]: 1000 nM
- Activity [2]: 130%
- EC50 [3]: 70 nM

Compound: Cc1ccc(S(=O)(=O)Nc2ccc(CNC(=O)c3sc(-c4ccc(C(F)(F)F)cc4)nc3C)cc2)cc1
- EC50 [1]: > 10000 nM
- EC50 [4]: > 10000 nM
- EC50 [5]: > 10000 nM
- EC50 [6]: > 10000 nM
- EC50 [7]: > 10000 nM
- EC50 [3]: 1000 nM

Compound: Cc1nc(-c2ccc(C(F)(F)F)cc2)sc1C(=O)NCc1ccc(OC(C)(C)C(=O)NS(=O)(=O)C(F)(F)F)cc1
- EC50 [1]: > 10000 nM
- EC50 [4]: > 10000 nM
- EC50 [5]: > 10000 nM
- EC50 [6]: > 10000 nM
- EC50 [7]: > 10000 nM
- EC50 [3]: > 10000 nM

Compound: COc1ccc2sc(C(=O)NCc3ccc(NS(=O)(=O)C(F)(F)F)cc3)cc2c1
- EC50 [1]: 130 nM
- Activity [2]: 132%
- EC50 [3]: 80 nM

Compound: O=C(Cc1ccc(-c2ccc(Cl)cc2)cc1)NCc1ccc(NS(=O)(=O)C(F)(F)F)cc1
- EC50 [1]: 340 nM
- Activity [2]: 0.34%
- EC50 [3]: 80 nM

Compound: N#Cc1ccc(-c2ccc(C(=O)NCc3ccc(NS(=O)(=O)C(F)(F)F)cc3)cc2)cc1
- EC50 [1]: 200 nM
- Activity [2]: 152%
- EC50 [3]: 20 nM

Compound: Cc1nc(-c2ccc(C(F)(F)F)cc2)sc1C(=O)NCc1ccc(OCc2nn[nH]n2)cc1
- EC50 [1]: > 10000 nM
- EC50 [4]: > 10000 nM
- EC50 [5]: > 10000 nM
- EC50 [6]: > 10000 nM
- EC50 [7]: > 10000 nM
- EC50 [3]: > 10000 nM

Compound: CC(C)(Oc1ccc(CNC(=O)Cc2ccc(-c3ccc(Cl)cc3)cc2)cc1)C(=O)O
- EC50 [1]: > 25000 nM
- EC50 [3]: 2800 nM

Compound: CCCCS(=O)(=O)Nc1ccc(CNC(=O)c2sc(-c3ccc(C(F)(F)F)cc3)nc2C)cc1
- EC50 [1]: > 10000 nM
- EC50 [4]: > 10000 nM
- EC50 [5]: 5500 nM
- EC50 [6]: 6700 nM
- EC50 [7]: > 10000 nM
- EC50 [3]: 320 nM

Compound: Cc1nc(-c2ccc(C(F)(F)F)cc2)sc1C(=O)NCc1ccc(NS(=O)(=O)C(C)C)cc1
- EC50 [1]: > 10000 nM
- EC50 [4]: > 10000 nM
- EC50 [5]: > 10000 nM
- EC50 [6]: > 10000 nM
- EC50 [7]: > 10000 nM
- EC50 [3]: 50 nM

Compound: Cc1nc(-c2ccc(C(F)(F)F)cc2)sc1C(=O)NCc1ccc(NS(C)(=O)=O)cc1
- EC50 [1]: 800 nM
- EC50 [4]: > 10000 nM
- EC50 [5]: > 10000 nM
- EC50 [6]: > 10000 nM
- Activity [2]: 78%
- EC50 [7]: > 10000 nM
- EC50 [3]: 60 nM

Compound: Cc1nc(-c2ccc(C(F)(F)F)cc2)sc1C(=O)NCc1ccc(-c2c(O)c(=O)c2=O)cc1
- EC50 [1]: > 10000 nM
- EC50 [4]: > 10000 nM
- EC50 [5]: > 10000 nM
- EC50 [6]: > 10000 nM
- EC50 [7]: > 10000 nM
- EC50 [3]: > 10000 nM

Compound: COc1ccc2sc(C(=O)NCc3ccc(OC(C)(C)C(=O)O)cc3)cc2c1
- EC50 [1]: > 25000 nM
- EC50 [3]: 6000 nM

Compound: Cc1nc(-c2ccc(C(F)(F)F)cc2)sc1C(=O)NCc1ccc(CNS(=O)(=O)C(F)(F)F)cc1
- EC50 [1]: > 10000 nM
- EC50 [4]: > 10000 nM
- EC50 [5]: > 10000 nM
- EC50 [6]: > 10000 nM
- EC50 [7]: > 10000 nM
- EC50 [3]: 80 nM

Compound: Cc1nc(-c2ccc(C(F)(F)F)cc2)sc1C(=O)NCc1ccc(NS(=O)(=O)CC(F)(F)F)cc1
- EC50 [1]: 60 nM
- EC50 [4]: > 10000 nM
- EC50 [5]: 300 nM
- EC50 [6]: 300 nM
- Activity [2]: 74%
- EC50 [7]: > 10000 nM
- EC50 [3]: 3 nM

Compound: Cc1nc(-c2ccc(C(F)(F)F)cc2)sc1C(=O)NCc1ccc(OC(C)(C)C(=O)O)cc1 [GW590735]
- EC50 [1]: 20 nM
- EC50 [4]: 1700 nM
- EC50 [5]: 9700 nM
- EC50 [6]: 9700 nM
- Activity [2]: 103%

Compound: Cc1csc(-c2ccc(C(=O)NCc3ccc(OC(C)(C)C(=O)O)cc3)cc2)n1
- EC50 [1]: > 25000 nM
- EC50 [3]: 5000 nM

Compound: Cc1nc(-c2ccc(C(F)(F)F)cc2)sc1C(=O)NCc1ccc(NS(=O)(=O)C(F)(F)F)cc1
- EC50 [1]: 2 nM
- EC50 [4]: 300 nM
- EC50 [5]: 500 nM
- EC50 [6]: 600 nM
- Activity [2]: 98%
- EC50 [7]: 400 nM
- EC50 [3]: 0.3 nM

Compound: Cc1nc(-c2ccc(C(F)(F)F)cc2)sc1C(=O)NCc1ccc(NC(=O)C(F)(F)F)cc1
- EC50 [1]: > 10000 nM
- EC50 [4]: > 10000 nM
- EC50 [5]: > 10000 nM
- EC50 [6]: > 10000 nM
- EC50 [7]: > 10000 nM
- EC50 [3]: 450 nM

Compound: CC(C)(Oc1ccc(CNC(=O)c2ccc(-c3ccc(C#N)cc3)cc2)cc1)C(=O)O
- EC50 [1]: > 25000 nM
- EC50 [3]: 1000 nM

Compound: COCc1nc(-c2ccc(C(=O)NCc3ccc(NS(=O)(=O)C(F)(F)F)cc3)cc2)no1
- EC50 [1]: 700 nM
- Activity [2]: 116%
- EC50 [3]: 360 nM

Compound: COCc1nc(-c2ccc(C(=O)NCc3ccc(OC(C)(C)C(=O)O)cc3)cc2)no1
- EC50 [1]: > 25000 nM
- EC50 [3]: 3000 nM
